Experiments:
[1] = test system: Human liver cancer-derived cell line HepG2; test: intracellular ATP content in HepG2 cells (ATPLite); format: cell-based; details: HepG2, culture for one day, relative value to control (without drug), n≧3, average
Protocol: Human liver cancer-derived cell line HepG2 (ATCC No. HB-8065) was passaged using Dulbecco's Modified Eagle medium (DMEM; Invitrogen) containing 10% fetal bovine serum (FBS; TRACE SCIENTIFIC LTD.), 1 mmol/L sodium pyruvate (Invitrogen), 2 mmol/L L-glutamine (Invitrogen), 50 IU/mL penicillin (Invitrogen) and 50 μg/mL streptomycin (Invitrogen) at 5% CO2. 37° C. The test reagent was prepared with DMSO to 10 mM, and further diluted with DMEM medium containing 0.5% FBS, 1 mmol/L sodium pyruvate, 2 mmol/L L-glutamine, 50 IU/mL penicillin and 50 μg/mL streptomycin to a final concentration of DMSO of 0.1%. HepG2 (2×10^4 cells/well) was cultured on a 96 well white plate (Costar) with the test reagent at 5% CO2, 37° C. After culture for one day, the intracellular ATP content was measured using ATPLite™ (PerkinElmer Life Sciences). The results are shown in Table 24 (n≧3, average value±SD) as a relative value (%) to control (without addition of drug) at 30 μM.

[2] = molecular target: T1, proton, potassium-adenosine triphosphatase (H+,K+-ATPase) (Sus scrofa, UniProt P19156); test: H+,K+-ATPase inhibitory activity test; format: biochemical; details: swine gastric mucous membrane microsomal fraction; pH 6.5, 37° C.
T1 construct: The obtained microsomal fraction was used as a proton, potassium—adenosine triphosphatase standard product; from tissue; host or cells: swine stomach, gastric mucous membrane microsomal fraction
Protocol: According to the method [Biochim. Biophys. Acta, 728, 31 (1983)] of Wallmark et al., a gastric mucous membrane microsomal fraction was prepared from the stomach of swine. First, the stomach was removed, washed with tap water, immersed in 3 mol/L brine, and the surface of the mucous membrane was wiped with a paper towel. The gastric mucous membrane was detached, chopped, and homogenized in a 0.25 mol/L saccharose solution (pH 6.8) containing 1 mmol/L EDTA and 10 mmol/L tris-hydrochloric acid using polytron (Kinematica). The obtained homogenate was centrifuged at 20,000×g for 30 min and the supernatant was centrifuged at 100,000×g for 90 min. The precipitate was suspended in 0.25 mol/L saccharose solution, superimposed on a 0.25 mol/L saccharose solution containing 7.5% Ficoll, and centrifuged at 100,000×g for 5 hr. […]
To 40 μL of a 50 mmol/L HEPES-tris buffer (5 mmol/L magnesium chloride, 10 mmol/L potassium chloride, 10 […], pH=6.5) containing 2.5 μg/mL (based on the protein concentration) of the enzyme standard product was added a test compound (5 μL) dissolved in a 10% aqueous dimethyl sulfoxide solution, and the mixture was incubated at 37° C. for 30 min. […] After allowing to stand at room temperature for 15 min, the resulting reaction product of inorganic phosphorus with malachite green was colorimetrically determined at a wavelength of 610 nm. […]

T1 sequence (P19156 2-1034 limits assumed): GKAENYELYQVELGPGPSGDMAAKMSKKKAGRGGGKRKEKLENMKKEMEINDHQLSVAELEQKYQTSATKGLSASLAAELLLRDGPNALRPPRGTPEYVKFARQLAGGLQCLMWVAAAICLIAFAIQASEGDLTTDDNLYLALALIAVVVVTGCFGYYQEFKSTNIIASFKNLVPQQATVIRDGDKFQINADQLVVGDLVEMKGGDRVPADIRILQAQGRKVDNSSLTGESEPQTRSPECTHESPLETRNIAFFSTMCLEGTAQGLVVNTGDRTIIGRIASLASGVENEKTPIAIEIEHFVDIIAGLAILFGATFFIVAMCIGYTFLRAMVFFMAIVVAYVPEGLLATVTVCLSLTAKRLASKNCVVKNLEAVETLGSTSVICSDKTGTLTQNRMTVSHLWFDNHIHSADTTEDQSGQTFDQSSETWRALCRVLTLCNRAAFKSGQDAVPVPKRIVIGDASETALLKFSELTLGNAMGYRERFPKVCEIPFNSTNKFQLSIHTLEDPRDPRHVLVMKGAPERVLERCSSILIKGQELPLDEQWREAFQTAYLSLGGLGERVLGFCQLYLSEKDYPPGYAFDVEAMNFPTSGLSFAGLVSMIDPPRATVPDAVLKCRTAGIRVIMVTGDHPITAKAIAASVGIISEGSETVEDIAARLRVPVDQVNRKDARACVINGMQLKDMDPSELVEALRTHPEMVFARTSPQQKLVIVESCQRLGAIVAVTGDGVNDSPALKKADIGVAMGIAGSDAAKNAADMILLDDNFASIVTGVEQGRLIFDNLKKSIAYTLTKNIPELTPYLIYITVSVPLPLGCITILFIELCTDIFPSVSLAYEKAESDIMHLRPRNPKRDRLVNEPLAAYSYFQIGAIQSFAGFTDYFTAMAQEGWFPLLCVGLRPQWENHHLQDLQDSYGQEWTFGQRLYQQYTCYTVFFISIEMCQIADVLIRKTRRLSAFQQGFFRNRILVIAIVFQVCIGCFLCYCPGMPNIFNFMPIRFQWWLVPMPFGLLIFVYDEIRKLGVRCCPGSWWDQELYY
T1 sequence (P18434 whole entry partner): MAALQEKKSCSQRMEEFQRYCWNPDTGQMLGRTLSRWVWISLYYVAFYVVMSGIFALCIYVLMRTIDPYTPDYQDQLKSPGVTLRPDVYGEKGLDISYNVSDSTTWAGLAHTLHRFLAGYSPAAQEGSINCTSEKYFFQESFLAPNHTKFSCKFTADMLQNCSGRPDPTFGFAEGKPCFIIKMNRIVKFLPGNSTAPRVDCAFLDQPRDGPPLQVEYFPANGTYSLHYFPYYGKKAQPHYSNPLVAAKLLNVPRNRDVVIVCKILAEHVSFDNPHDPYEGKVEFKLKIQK

| ATP content (%, 30 μM) [1] [%] | IC50 [2] [µM] | SMILES |
| --- | --- | --- |
| 76.5 | 0.034 | CNCc1cc(-c2ccccc2)n(S(=O)(=O)c2ccc(C)nc2)c1.Cl.Cl [Example 24, N-methyl-1-{1-[(6-methylpyridin-3-yl)sulfonyl]-5-phenyl-1H-pyrrol-3-yl}methanamine dihydrochloride] |
| 53.6 | 0.0089 | CNCc1cc(-c2ccc(Cl)cc2F)n(S(=O)(=O)c2cccnc2)c1.Cl.Cl [Example 34, 1-[5-(4-chloro-2-fluorophenyl)-1-(pyridin-3-ylsulfonyl)-1H-pyrrol-3-yl]-N-methylmethanamine dihydrochloride] |
